Reference: patent US9771337B2, “Neprilysin inhibitors” (THERAVANCE BIOPHARMA R&D IP, LLC, priority 2011, dated 2017)

Biological target: T1, human NEP (Homo sapiens, UniProt P08473)
T1 construct: purchased R&D Systems, Minneapolis, Minn; 1182-ZN
Assay: In vitro enzyme inhibition assay, inhibitor potency at human NEP
Format: biochemical
Settings: pKi values at human NEP; recombinant human NEP, fluorogenic peptide substrate 10 μM, 37° C.
Procedure: The inhibitory activities of compounds at human and rat neprilysin (EC 3.4.24.11; NEP) and human angiotensin converting enzyme (ACE) were determined using in vitro assays as described below.
Recombinant human NEP and recombinant human ACE were obtained commercially (R&D Systems, Minneapolis, Minn., catalog numbers 1182-ZN and 929-ZN, respectively). The fluorogenic peptide substrate Mca-D-Arg-Arg-Leu-Dap-(Dnp)-OH (Medeiros et al. (1997) Braz. J. Med. Biol. Res. 30:1157-62; Anaspec, San Jose, Calif.) and Abz-Phe-Arg-Lys(Dnp)-Pro-OH (Araujo et al. (2000) Biochemistry 39:8519-8525; Bachem, Torrance, Calif.) were used in the NEP and ACE assays respectively.
The assays were performed in 384-well white opaque plates at 37° C. using the fluorogenic peptide substrates at a concentration of 10 μM in Assay Buffer (NEP: 50 mM HEPES, pH 7.5, 100 mM NaCl, 0.01% polyethylene glycol sorbitan monolaurate (Tween-20), 10 μM ZnSO4; ACE: 50 mM HEPES, pH 7.5, 100 mM NaCl, 0.01% Tween-20, 1 μM ZnSO4).
Test compounds were assayed over the range of concentrations from […] to 20 μM. Test compounds were added to the enzymes and incubated for 30 minute at 37° C. prior to initiating the reaction by the addition of substrate. Reactions were terminated after 20 minutes of incubation at 37° C. by the addition of glacial acetic acid to a final concentration of 3.6% (v/v).
Plates were read on a fluorometer with excitation and emission wavelengths set to 320 nm and 405 nm, respectively. Inhibition constants were obtained by nonlinear regression of the data using the equation (GraphPad Software, Inc., San Diego, Calif.): v=v0/[1+(I/K′)] where v is the reaction rate, v0 is the uninhibited reaction rate, I is the inhibitor concentration and K′ is the apparent inhibition constant.
Compounds of the invention were tested in this assay and found to have pKi values at human NEP as follows.

T1 sequence (P08473 whole entry): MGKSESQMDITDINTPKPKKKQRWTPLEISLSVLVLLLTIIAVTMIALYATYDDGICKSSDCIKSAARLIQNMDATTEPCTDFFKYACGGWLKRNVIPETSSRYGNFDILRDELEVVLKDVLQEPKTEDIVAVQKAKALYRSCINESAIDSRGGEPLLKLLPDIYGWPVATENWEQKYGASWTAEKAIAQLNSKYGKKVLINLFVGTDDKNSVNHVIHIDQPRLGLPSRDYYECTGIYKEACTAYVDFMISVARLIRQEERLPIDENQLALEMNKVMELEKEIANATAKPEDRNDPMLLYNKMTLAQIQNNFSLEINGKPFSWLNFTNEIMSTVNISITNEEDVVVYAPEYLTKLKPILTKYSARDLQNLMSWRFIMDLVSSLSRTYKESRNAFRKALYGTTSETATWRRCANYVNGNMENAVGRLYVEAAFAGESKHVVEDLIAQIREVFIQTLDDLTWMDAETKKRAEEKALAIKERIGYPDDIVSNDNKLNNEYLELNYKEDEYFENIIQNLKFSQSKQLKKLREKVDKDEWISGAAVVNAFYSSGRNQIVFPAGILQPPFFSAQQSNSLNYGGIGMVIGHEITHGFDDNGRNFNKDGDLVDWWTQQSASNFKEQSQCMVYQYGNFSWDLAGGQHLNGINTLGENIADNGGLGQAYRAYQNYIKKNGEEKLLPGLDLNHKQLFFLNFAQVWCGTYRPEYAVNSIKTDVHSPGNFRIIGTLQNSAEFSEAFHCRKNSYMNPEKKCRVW

Row | Compound | Ki
1 | CCCc1nc2c(C)cc(C(=O)N[C@H](Cc3ccccc3)[C@@H](O)C(=O)O)cc2n1Cc1ccc(OC)cc1 [Example 5-7, (2R,3R)-2-Hydroxy-3-{[3-(4-methoxy-benzyl)-7-methyl-2-propyl-3H-benzoimidazole-5-carbonyl]-amino}-4-phenyl-butyric acid] | 12.6 to 100 nM
2 | O=C(N[C@H](Cc1ccccc1Cl)[C@@H](O)C(=O)O)c1cc(-c2ccc(Cl)cc2)no1 [Example 2-14, (2R,3R)-4-(2-Chloro-phenyl)-3-{[3-(4-chloro-phenyl)-isoxazole-5-carbonyl]-amino}-2-hydroxy-butyric acid] | 1.26 to 10 nM
3 | O=C(N[C@H](Cc1ccccc1Cl)[C@@H](O)C(=O)O)c1cnc2nn[nH]c2c1 [Example 2-37, (2R,3R)-4-(2-Chloro-phenyl)-2-hydroxy-3-[(1H-[1,2,3]triazolo[4,5-b]pyridine-6-carbonyl)-amino]-butyric acid] | 1.26 to 10 nM
4 | O=C(N[C@H](Cc1ccccc1)[C@@H](O)C(=O)O)c1cc(F)c2[nH]nnc2c1 [Example 5-16, (2R,3R)-3-[(7-Fluoro-1H-benzotriazole-5-carbonyl)-amino]-2-hydroxy-4-phenyl-butyric acid] | 12.6 to 100 nM
5 | O=C(N[C@H](Cc1ccccc1Cl)[C@@H](O)C(=O)O)c1cnc(-c2ccccc2)o1 [Example 2-18, (2R,3R)-4-(2-Chloro-phenyl)-2-hydroxy-3-[(2-phenyl-oxazole-5-carbonyl)-amino]-butyric acid] | 12.6 to 100 nM
6 | Cc1nc(C(=O)N[C@H](Cc2ccccc2Cl)[C@@H](O)C(=O)O)nn1-c1ccc(Cl)cc1 [Example 2-22, (2R,3R)-4-(2-Chloro-phenyl)-3-{[1-(4-chloro-phenyl)-5-methyl-1H-[1,2,4]triazole-3-carbonyl]-amino}-2-hydroxy-butyric acid] | 12.6 to 100 nM
7 | O=C(N[C@H](Cc1ccccc1Cl)[C@@H](O)C(=O)O)c1nn(Cc2ccc(Cl)cc2F)c(=O)[nH]1 [Example 2-23, (2R,3R)-3-{[1-(4-Chloro-2-fluoro-benzyl)-5-oxo-4,5-dihydro-1H-[1,2,4]triazole-3-carbonyl]-amino}-4-(2-chloro-phenyl)-2-hydroxy-butyric acid] | 12.6 to 100 nM
8 | O=C(N[C@H](Cc1ccccc1Cl)[C@H](O)C(=O)O)c1ccc2nn[nH]c2c1 [Example 2-29, (2S,3R)-3-[(3H-Benzotriazole-5-carbonyl)-amino]-4-(2-chloro-phenyl)-2-hydroxy-butyric acid] | 12.6 to 100 nM
9 | O=C(N[C@H](Cc1ccccc1Cl)[C@@H](O)C(=O)O)c1cc(-c2cccc(Cl)c2)no1 [Example 2-13, (2R,3R)-4-(2-Chloro-phenyl)-3-{[3-(3-chloro-phenyl)-isoxazole-5-carbonyl]-amino}-2-hydroxy-butyric acid] | 1.26 to 10 nM
10 | O=C(N[C@H](Cc1ccccc1)[C@@H](O)C(=O)O)c1cc(Cl)c2nn[nH]c2c1 [Example 5-13, (2R,3R)-3-[(7-Chloro-3H-benzotriazole-5-carbonyl)-amino]-2-hydroxy-4-phenyl-butyric acid] | 12.6 to 100 nM
11 | O=C(N[C@H](Cc1ccccc1)[C@@H](O)C(=O)O)c1cc2cccn2cn1 [Example 5-30, (2R,3R)-2-Hydroxy-4-phenyl-3-[(pyrrolo[1,2-c]pyrimidine-3-carbonyl)-amino]-butyric acid] | 12.6 to 100 nM
12 | O=C(N[C@H](Cc1ccccc1)[C@@H](O)C(=O)O)c1cncc(-c2ccccc2C(=O)O)c1 [Example 5-25, 2-[5-((1R,2R)-1-Benzyl-2-carboxy-2-hydroxy-ethylcarbamoyl)-pyridin-3-yl]-benzoic acid] | 1.26 to 10 nM
13 | O=C(O)c1cnc(C(=O)N[C@H](Cc2ccccc2)[C@@H](O)C(=O)O)cn1 [Example 5-18, 5-((1R,2R)-1-Benzyl-2-carboxy-2-hydroxy-ethylcarbamoyl)-pyrazine-2-carboxylic acid] | 12.6 to 100 nM
14 | O=C(N[C@H](Cc1ccccc1Cl)[C@@H](O)C(=O)O)c1cc(C(=O)O)c2[nH]nnc2c1 [Example 2-31, 6-[(1R,2R)-2-Carboxy-1-(2-chloro-benzyl)-2-hydroxy-ethylcarbamoyl]-3H-benzotriazole-4-carboxylic acid] | 12.6 to 100 nM
15 | O=C(N[C@H](Cc1ccccc1Cl)[C@@H](O)C(=O)O)c1cc2n(n1)COc1ccccc1-2 [Example 2-24, (2R,3R)-4-(2-Chloro-phenyl)-2-hydroxy-3-[(5-oxa-3,3a-diazacyclopenta[a]naphthalene-2-carbonyl)-amino]-butyric acid] | 1.26 to 10 nM
16 | CCCc1nc2c(C)cc(C(=O)N[C@H](Cc3ccccc3)[C@@H](O)C(=O)O)cc2n1Cc1ccccc1OC [Example 5-6, (2R,3R)-2-Hydroxy-3-{[3-(2-methoxy-benzyl)-7-methyl-2-propyl-3H-benzoimidazole-5-carbonyl]-amino}-4-phenyl-butyric acid] | 12.6 to 100 nM
17 | O=C(O)c1ccc(C(=O)N[C@H](Cc2ccccc2)[C@@H](O)C(=O)O)s1 [Example 5-31, 5-((1R,2R)-1-Benzyl-2-carboxy-2-hydroxy-ethylcarbamoyl)-thiophene-2-carboxylic acid] | 1.26 to 10 nM
18 | O=C(N[C@H](Cc1ccccc1)[C@@H](O)C(=O)O)c1cc(-c2ccccc2C(=O)O)ccn1 [Example 5-26, 2-[2-((1R,2R)-1-Benzyl-2-carboxy-2-hydroxy-ethylcarbamoyl)-pyridin-4-yl]-benzoic acid] | 1.26 to 10 nM
19 | O=C1CCC(C(=O)N[C@H](Cc2ccccc2Cl)[C@@H](O)C(=O)O)=NN1 [Example 2-39, (2R,3R)-4-(2-Chloro-phenyl)-2-hydroxy-3-[(6-oxo-1,4,5,6-tetrahydro-pyridazine-3-carbonyl)-amino]-butyric acid] | 12.6 to 100 nM
20 | O=C(O)C[C@@H](Cc1ccccc1Cl)NC(=O)c1cc(-c2ccccc2C(=O)O)ccn1 [Example 6, 2-{2-[(R)-1-Carboxymethyl-2-(2-chloro-phenyl)-ethylcarbamoyl]-pyridin-4-yl}-benzoic Acid] | 1.26 to 10 nM
21 | CCCc1nc2c(C)cc(C(=O)N[C@H](Cc3ccccc3)[C@@H](O)C(=O)O)cc2n1CC(N)=O [Example 5-8, (2R,3R)-3-[(3-Carbamoylmethyl-7-methyl-2-propyl-3H-benzoimidazole-5-carbonyl)-amino]-2-hydroxy-4-phenyl-butyric acid] | 12.6 to 100 nM
22 | O=C(N[C@H](Cc1ccccc1Cl)[C@H](O)C(=O)O)c1cc(F)c2nn[nH]c2c1 [Example 2-27, (2S,3R)-4-(2-Chloro-phenyl)-3-[(7-fluoro-3H-benzotriazole-5-carbonyl)-amino]-2-hydroxy-butyric acid] | 1.26 to 10 nM
23 | O=C(N[C@H](Cc1ccccc1Cl)[C@@H](O)C(=O)O)c1cc(O)no1 [Example 2-11, (2R,3R)-4-(2-Chloro-phenyl)-2-hydroxy-3-[(3-hydroxy-isoxazole-5-carbonyl)-amino]-butyric acid] | 1.26 to 10 nM
24 | Cc1cc(C(=O)N[C@H](Cc2ccccc2Cl)[C@@H](O)C(=O)O)cc(-c2ccccc2C(=O)O)n1 [Example 2-4, 2-{4-[(1R,2R)-2-Carboxy-1-(2-chloro-benzyl)-2-hydroxy-ethylcarbamoyl]-6-methyl-pyridin-2-yl}-benzoic acid] | 1.26 to 10 nM
25 | O=C(N[C@H](Cc1ccccc1Cl)[C@@H](O)C(=O)O)c1cnc(-c2ccccc2C(=O)O)c(Cl)c1 [Example 2-9, 2-{5-[(1R,2R)-2-Carboxy-1-(2-chloro-benzyl)-2-hydroxy-ethylcarbamoyl]-3-chloro-pyridin-2-yl}-benzoic acid] | 1.26 to 10 nM
26 | O=C(N[C@H](Cc1ccccc1Cl)[C@@H](O)C(=O)O)c1cnc(O)c(-c2ccccc2C(=O)O)c1 [Example 2-7, 2-{5-[(1R,2R)-2-Carboxy-1-(2-chloro-benzyl)-2-hydroxy-ethylcarbamoyl]-2-hydroxy-pyridin-3-yl}-benzoic acid] | ≤ 1 nM
27 | O=C(N[C@H](Cc1ccccc1)[C@@H](O)C(=O)O)c1ccc2nn[nH]c2c1 [Example 5-11, (2R,3R)-3-[(3H-Benzotriazole-5-carbonyl)-amino]-2-hydroxy-4-phenyl-butyric acid] | 12.6 to 100 nM
28 | O=C(N[C@H](Cc1ccccc1Cl)[C@H](O)C(=O)O)c1cc(Cl)c2nn[nH]c2c1 [Example 2-28, (2S,3R)-3-[(7-Chloro-3H-benzotriazole-5-carbonyl)-amino]-4-(2-chloro-phenyl)-2-hydroxy-butyric acid] | 1.26 to 10 nM
29 | Cc1cc(C(=O)N[C@H](Cc2ccccc2)[C@@H](O)C(=O)O)cc2[nH]nnc12 [Example 5-15, (2R,3R)-2-Hydroxy-3-[(7-methyl-3H-benzotriazole-5-carbonyl)-amino]-4-phenyl-butyric acid] | 12.6 to 100 nM
30 | O=C(O)C[C@@H](Cc1ccccc1Cl)NC(=O)c1cnc(O)nc1 [Example 7-8, (R)-4-(2-Chloro-phenyl)-3-[(2-hydroxy-pyrimidine-5-carbonyl)-amino]-butyric acid] | 1.26 to 10 nM
